Experimental data reported in US8765730B2 (Hoffmann-La Roche Inc, priority 2010, dated 2014).
Where a name gives a salt, the structure may show the parent alone.

Target: T1, human GPBAR1 receptor (Homo sapiens, UniProt Q8TDU6)
T1 construct: expressed in transfected cells
T1 sequence (Q8TDU6 1-330): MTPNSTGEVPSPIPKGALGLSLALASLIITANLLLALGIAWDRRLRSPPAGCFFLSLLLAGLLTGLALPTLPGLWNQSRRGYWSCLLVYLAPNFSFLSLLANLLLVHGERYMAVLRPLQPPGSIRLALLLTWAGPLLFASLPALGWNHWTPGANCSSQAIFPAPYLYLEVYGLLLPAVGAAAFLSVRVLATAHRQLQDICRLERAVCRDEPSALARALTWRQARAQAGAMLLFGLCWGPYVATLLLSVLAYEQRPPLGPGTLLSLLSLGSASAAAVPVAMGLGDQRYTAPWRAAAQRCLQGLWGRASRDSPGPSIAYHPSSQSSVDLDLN
Assay: functional cAMP assay in CHO-dhfr(minus) cells expressing human GPBAR1 receptors
Assay type: cell-based
Conditions: functional cAMP assay, 30 min at 30° C., read-out: human EC50
Summary of the method: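 Agonist cAMP read-out: stable GPBAR1 CHO-dhfr− clone, 30 min compound exposure at 30° C following 30 min IBMX (1 mM) preincubation in Krebs Ringer bicarbonate. Time-resolved energy-transfer detection gives EC50; parental CHO cells serve as counter-screen.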

EC50	SMILES
153 nM	CCOC(=O)CCCNC(=O)c1ccc(C(C/C(=N\O)c2ccc(=O)n(C)c2)c2ccccc2C)cc1 (centres unmarked) [Example 212, 4-{4-[3-[(E)-Hydroxyimino]-3-(1-methyl-6-oxo-1,6-dihydro-pyridin-3-yl)-1-o-tolyl-propyl]-benzoylamino}-butyric acid ethyl ester]

Same assay, conditions: human EC50, functional cAMP assay, 30 min at 30° C.

EC50	SMILES
164 nM	Cc1ccccc1[C@H](C/C(=N\O)c1cc(Cl)nc(Cl)c1)c1ccc(-c2ccc(C(=O)O)cc2)cc1 [Example 146, (E,R)-4′-(3-(2,6-Dichloropyridin-4-yl)-3-(hydroxyimino)-1-o-tolylpropyl)biphenyl-4-carboxylic acid]
87 nM	Cc1cnc(F)cc1C(CC(c1ccc(-c2ccc(C(=O)O)cc2)cc1)c1ccccc1C)=NO (racemic) [Example 130, 4′-{3-(2-Fluoro-5-methyl-pyridin-4-yl)-3-[hydroxyimino]-1-o-tolyl-propyl}-biphenyl-4-carboxylic acid]
24 nM	Cc1ccccc1C(CC(=NO)c1cc(F)ncc1Cl)c1ccc(Br)cc1 (racemic) [Example 121, 3-(4-Bromo-phenyl)-1-(5-chloro-2-fluoro-pyridin-4-yl)-3-o-tolyl-propan-1-one oxime]
268 nM	Cc1ccccc1[C@H](C/C(=N\O)c1ccc(=O)n(C)c1)c1ccc(-c2nnn[nH]2)cc1 [Example 500, (R,E)-5-(3-(4-(1H-Tetrazol-5-yl)phenyl)-1-(hydroxyimino)-3-o-tolylpropyl)-1-methyl-pyridin-2(1H)-one, sodium salt]
356 nM	Cc1ccc(-c2ccc(C(C/C(=N\O)c3ccncc3)c3ccccc3)cc2)cn1 (centres unmarked) [Example 25, (E)-3-[4-(6-Methyl-pyridin-3-yl)-phenyl]-3-phenyl-1-pyridin-4-yl-propan-1-one oxime]
12 nM	Cc1ccccc1[C@H](C/C(=N\O)c1cc(F)ncc1Cl)c1ccc(-c2ccc(C(=O)O)cc2)cc1 [Example 293, 4′-{(R)-3-(5-Chloro-2-fluoro-pyridin-4-yl)-3-[(E)-hydroxyimino]-1-o-tolyl-propyl}-biphenyl-4-carboxylic acid]
2910 nM	Cc1ccccc1C(CC(=NO)c1cc(Cl)ccc1Cl)c1ccc(Br)cc1 (racemic) [Example 49, 3-(4-Bromo-phenyl)-1-(2,5-dichloro-phenyl)-3-o-tolyl-propan-1-one oxime]
38 nM	Cc1cc(/C(CC(c2ccc(N3CCN(S(C)(=O)=O)CC3)cc2)c2ccccc2C(F)(F)F)=N/O)ccn1 (centres unmarked) [Example 137, (E)-3-[4-(4-Methanesulfonyl-piperazin-1-yl)-phenyl]-1-(2-methyl-pyridin-4-yl)-3-(2-trifluoromethyl-phenyl)-propan-1-one oxime]
43 nM	Cc1cc(C(CC(c2ccc(-c3ccc(C(=O)O)cc3F)cc2)c2ccccc2C)=NO)ccn1 (racemic) [Example 82, 2-Fluoro-4′-[3-[hydroxyimino]-3-(2-methyl-pyridin-4-yl)-1-o-tolyl-propyl]-biphenyl-4-carboxylic acid]
113 nM	Cc1cc(Cl)ccc1C(C/C(=N\O)c1ccc(=O)n(C)c1)c1ccc(C(=O)NC[C@@H](O)CO)cc1 (stereo partly drawn) [Example 335, 4-((E)-1-(4-Chloro-2-methylphenyl)-3-(hydroxyimino)-3-(1-methyl-6-oxo-1,6-dihydropyridin-3-yl)propyl)-N—((R)-2,3-dihydroxypropyl)benzamide]
17 nM	Cc1cc(/C(C[C@H](c2ccc(-c3ccc(C(=O)O)cc3)cc2)c2ccc(F)cc2C)=N/O)ccn1 (single isomer, unassigned) [Example 397, (+)-4′-[1-(4-Fluoro-2-methyl-phenyl)-3-[(E)-hydroxyimino]-3-(2-methyl-pyridin-4-yl)-propyl]-biphenyl-4-carboxylic acid; compound with triethylamine 1:0.75]
381 nM	CCOC(=O)c1cccc(-c2ccc(C(CC(=NO)c3ccnc(C)c3)c3ccccc3C)cc2)c1 (racemic) [Example 78, 4′-[3-[Hydroxyimino]-3-(2-methyl-pyridin-4-yl)-1-o-tolyl-propyl]-biphenyl-3-carboxylic acid ethyl ester]
1220 nM	Cc1ccccc1C(C/C(=N\O)c1ccc(=O)n(C)c1)c1ccc(C(=O)NCCC(=O)O)cc1 (centres unmarked) [Example 214, 3-{4-[3-[(E)-Hydroxyimino]-3-(1-methyl-6-oxo-1,6-dihydro-pyridin-3-yl)-1-o-tolyl-propyl]-benzoylamino}-propionic acid]
1310 nM	O=c1ccc(/C(CC(c2ccccc2)c2ccccc2)=N/O)c[nH]1 [Example 160, 5-{1-[(E)-Hydroxyimino]-3,3-diphenyl-propyl}-1H-pyridin-2-one]
2000 nM	Cc1cc(Cl)ccc1[C@H](C/C(Cc1ccccn1)=N\O)c1ccc(Br)cc1 [Example 362, (E,R)-4-(4-bromo-phenyl)-4-(4-chloro-2-methyl-phenyl)-1-pyridin-2-yl-butan-2-one oxime]
12 nM	CCOC(=O)C1CCN(c2ccc([C@@H](C/C(=N\O)c3ccnc(C)c3)c3ccccc3C)cc2)CC1 [Example 265, 1-{4-[(R)-3-[(E)-Hydroxyimino]-3-(2-methyl-pyridin-4-yl)-1-o-tolyl-propyl]-phenyl}-piperidine-4-carboxylic acid ethyl ester]

EC50	SMILES
20 nM	Cc1cc(/C(C[C@H](c2ccc(C3CCN(S(N)(=O)=O)CC3)cc2)c2ccc(Cl)cc2C)=N/O)ccn1 [Example 480, (R,E)-4-(4-(1-(4-Chloro-2-methylphenyl)-3-(hydroxyimino)-3-(2-methylpyridin-4-yl)propyl)phenyl)piperidine-1-sulfonamide]
1630 nM	Cc1ccccc1C(C/C(=N\O)c1ccc(=O)n(C)c1)c1ccc(C(=O)N[C@@H](CO)C(C)C)cc1 (stereo partly drawn) [Example 305, N—((R)-1-hydroxy-3-methylbutan-2-yl)-4-((E)-3-(hydroxyimino)-3-(1-methyl-6-oxo-1,6-dihydropyridin-3-yl)-1-o-tolylpropyl)benzamide]
9640 nM	Cn1cc(/C(CC(c2ccccc2Cl)C2CC[N+](C)(C)CC2)=N/O)ccc1=O (centres unmarked) [Example 198, 4-[1-(2-Chloro-phenyl)-3-[(E)-hydroxyimino]-3-(1-methyl-6-oxo-1,6-dihydro-pyridin-3-yl)-propyl]-1,1-dimethyl-piperidinium iodide]
1360 nM	ON=C(CC(c1ccccc1)c1ccc(Br)cc1)c1ccnc(Cl)c1 (racemic) [Example 46, 3-(4-Bromo-phenyl)-1-(2-chloro-pyridin-4-yl)-3-phenyl-propan-1-one oxime]
156 nM	CCN(CC)c1ccc(C(CC(=NO)c2ccncc2)c2ccccc2C)cc1 (racemic) [Example 42, 3-(4-Diethylamino-phenyl)-1-pyridin-4-yl-3-o-tolyl-propan-1-one oxime]
155 nM	Cc1cc(/C(CC(c2ccc(Br)cc2)c2ccc(Cl)cc2C)=N/O)ccn1 (centres unmarked) [Example 138, (E)-3-(4-Bromophenyl)-3-(4-chloro-2-methylphenyl)-1-(2-methylpyridin-4-yl)propan-1-one oxime]
558 nM	Cc1cc(=O)n(C)cc1/C(CC(c1ccc(Br)cc1)c1ccccc1C)=N\O (centres unmarked) [Example 200, 5-{3-(4-Bromo-phenyl)-1-[(Z)-hydroxyimino]-3-o-tolyl-propyl}-1,4-dimethyl-1H-pyridin-2-one]
634 nM	Cc1ccccc1[C@H](C/C(=N\O)c1ccc(=O)n(C)c1)c1ccc(C2CCN(C(=O)OC(C)(C)C)CC2)cc1 [Example 506, (R,E)-tert-Butyl 4-(4-(3-(hydroxyimino)-3-(1-methyl-6-oxo-1,6-dihydropyridin-3-yl)-1-o-tolylpropyl)phenyl)piperidine-1-carboxylate]
98 nM	Cc1cc(/C(CC(c2ccc(N3CCOCC3)nc2)c2ccc(F)cc2F)=N/O)ccn1 (centres unmarked) [Example 443, 3-(2,4-Difluoro-phenyl)-1-(2-methyl-pyridin-4-yl)-3-(6-morpholin-4-yl-pyridin-3-yl)-propan-1-one oxime]
7650 nM	Cc1ccccc1C(C/C(=N/O)c1ccncc1)c1ccc(-c2cncnc2)cc1 (single isomer, unassigned; (+)) [Example 38, (+)-(Z)-1-pyridin-4-yl-3-(4-pyrimidin-5-yl-phenyl)-3-o-tolyl-propan-1-one oxime]
11 nM	Cc1cc(/C(C[C@H](c2ccc(-c3nnc(CC(=O)O)o3)cc2)c2ccccc2C)=N/O)ccn1 (single isomer, unassigned) [Example 422, (5-{4-[(−)-3-[(E)-Hydroxyimino]-3-(2-methyl-pyridin-4-yl)-1-o-tolyl-propyl]-phenyl}-[1,3,4]oxadiazol-2-yl)-acetic acid]
6760 nM	Cc1ccccc1C(C/C(=N\O)c1cc(F)cc(F)c1)c1ccc(Br)cc1 (centres unmarked) [Example 53, (E)-3-(4-bromo-phenyl)-1-(3,5-difluoro-phenyl)-3-o-tolyl-propan-1-one oxime]
11 nM	Cn1cc(/C(CC(c2ccc(Br)cc2)c2ccc(F)cc2Cl)=N/O)ccc1=O (centres unmarked) [Example 410, (E)-5-(3-(4-bromophenyl)-3-(2-chloro-4-fluorophenyl)-1-(hydroxyimino)propyl)-1-methylpyridin-2(1H)-one]
3960 nM	Cn1cc(/C(CC(c2cccc(C(=O)N3CCOCC3)c2)c2ccc(Cl)cc2F)=N/O)ccc1=O (centres unmarked) [Example 322, (E)-5-(3-(4-Chloro-2-fluorophenyl)-1-(hydroxyimino)-3-(3-(morpholine-4-carbonyl)phenyl)propyl)-1-methylpyridin-2(1H)-one]
11 nM	Cc1cc(/C(C[C@H](c2ccc(N3CC(C(=O)O)C3)cc2)c2ccccc2C)=N/O)ccn1 [Example 279, 1-{4-[(R)-3-[(E)-Hydroxyimino]-3-(2-methyl-pyridin-4-yl)-1-o-tolyl-propyl]-phenyl}-azetidine-3-carboxylic acid]
